ChEMBL document CHEMBL1201862, “PubChem BioAssay data set” (2004)
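Dose response: 5 concentrations. Exposure: 48 h. Format: 96-well plates. Endpoint: linear interpolation; highest concentration if not reached. GI50 marks 50% less growth.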 The source made the active and inactive calls. Rule as the data show it: active = GI50 up to about 1.1 µM and inactive = higher.

Columns and labels:
Assay in all cases: DTP human tumour cell line panel, 48 h
NCI-H23 = test system: NCI-H23
UACC-62 = test system: UACC-62
CAKI-1 = test system: CAKI-1
SF-295 = test system: SF-295
PC-3 = test system: PC-3
OVCAR-3 = test system: OVCAR-3
SK-MEL-28 = test system: SK-MEL-28
LOX IMVI = test system: LOX IMVI
DMS-114 = test system: DMS-114
Hs-578T = test system: Hs-578T
OVCAR-8 = test system: OVCAR-8
RPMI-8226 = test system: RPMI-8226
SF-539 = test system: SF-539
HL-60 = test system: HL-60
CCRF-CEM = test system: CCRF-CEM
EKVX = test system: EKVX
IGROV-1 = test system: IGROV-1
MCF7 = test system: MCF7
MDA-MB-435 = test system: MDA-MB-435
A498 = test system: A498

Measured: GI50

CCC/N=C/c1c(O)c(O)c(C(C)C)c2cc(C)c(-c3c(C)cc4c(C(C)C)c(O)c(O)c(/C=N/CCC)c4c3O)c(O)c12
inactive: NCI-H23 6.1 µM | UACC-62 5.78 µM | CAKI-1 25.8 µM | SF-295 3.77 µM | PC-3 2.48 µM | OVCAR-3 3.88 µM | SK-MEL-28 12.6 µM | LOX IMVI 6.04 µM | DMS-114 1.71 µM | Hs-578T 69.3 µM | OVCAR-8 6.46 µM | RPMI-8226 9.16 µM | SF-539 5.65 µM | HL-60 3.01 µM | CCRF-CEM 1.54 µM | EKVX 7.19 µM | IGROV-1 11.1 µM | MCF7 14.7 µM | MDA-MB-435 10.7 µM | A498 11.2 µM
